Laboratory results: patent US20060222628A1, “Gallium complexes of 3-hydroxy-4-pyrones to treat infection by intracellular prokaryotes and DNA viruses” (priority 1999, published 2006)

Assays:
HIV infection = test: Clinical evaluation for treating HIV infection; type: in vivo, human; conditions: 250, 500 or 750 mg/day oral about six months, with AZT, ddI and indinavir
Protocol: Patients with HIV infection are treated once per day with gelatin capsules containing 250 mg gallium maltolate. Patients are divided randomly and blindly into approximately equal groups that receive either 0 (placebo), 250, 500, or 750 mg/day gallium maltolate for about six months, together with 300 mg AZT twice per day, 200 mg ddI twice per day, and 800 mg indinavir every eight hours. Patients are medically monitored for symptoms of HIV infection throughout the study. In addition, blood serum samples are obtained from the patients at days 0, 30, 90, and 180 and are assayed for CD4 T-cell count by routine methods and for HIV-1 RNA (viral load assay) using the Roche […] ultra-assay (Sun et al. (1998), “Ultrasensitive reverse transcription-PCR assay for quantitation of human immunodeficiency virus type 1 RNA in plasma,” J. Clin. Microbiol. 36(10):2964-2969).

Varicella-Zoster (VZV) = test: Clinical evaluation for Varicella-Zoster (VZV) infection and recurrences; type: in vivo, human
Protocol: Gallium maltolate is evaluated clinically for efficacy in treating Varicella-Zoster (VZV) infection in HIV negative individuals who show no signs of immune dysfunction of any type. Patients with VZV infection are treated once per day with gelatin capsules containing gallium maltolate. The population of patients is divided into subpopulation with recurrent VZV (shingles) and acute VZV infections (chickenpox) respectively. These different subpopulations are divided randomly and blindly into two approximately equal groups with four approximately equal subgroups that receive either 0 (placebo), 250, 500, or 750 mg/day gallium maltolate for about six months. The first group of each subpopulation receive the gallium maltolate dose together with 800 mg acyclovir five times per day. The second group of each subpopulation receive the gallium maltolate dose together with 500 mg ganciclovir twice per day. Patients are medically monitored for resolution reoccurrences of latent VZV infection, or medical symptoms of acute VZV infection throughout the study, with the monitoring including in situ hybridization of skin lesions for VZV DNA. In addition for the acute VZV infected group, blood serum samples are obtained from the patients at days 1-5 and are assayed for VZV particles by routine methods and for VZV DNA (viral load assay) using PCR.

CMV = test: Clinical evaluation for prevention of CMV disease in HIV patients: CMV; type: in vivo, human
From the text: In this example, prevention of CMV disease rather than its treatment will be studied. Chemo-prevention by antivirals is preferred, rather than with immune stimulating agents such as interferons, because interferons require regular administration by injection. Foscarnet is an antiviral only for injection, but it is studied for comparison with oral antivirals. […] In addition to the methods used in Example 5 for evaluating the HIV disease, some of the methods employed in the following reference are used in the evaluation: Monkemuller et al. (2000), “Esophageal ulcer caused by cytomegalovirus: resolution during combination antiretroviral therapy for acquired immunodeficiency syndrome,” South Med. J. 93(8):8 18-20. Patients are treated once per day with gelatin capsules containing gallium maltolate. The population of patients with CMV (almost universal, seropositive or culture positive patients) and HIV infection are first divided into two subpopulations groups based on CD4+ counts (above 350/mm^3 and below 350/mm^3). The subpopulations are randomly and blindly divided into two groups each randomly subdivided into subgroups for a total of sixteen approximately equal subgroups that receive either 0 (placebo), 250, 500, or 750 mg/day gallium maltolate for about six months. All subgroups receive the identical regimen of non-gallium antiretroviral therapy as described in Example 5 (a HAART regime). The commonly used nucleoside analog for CMV is ganciclovir, with foscavir used in cases where ganciclovir is ineffective, and the combination used to treat refractory CMV retinitis and other conditions. Foscarnet must be infused slowly to avoid adverse reactions. […] Patients are monitored for HIV disease precisely as described in Example 5. Patients are also medically monitored for CMV disease, including testing and examination for medical symptoms of CMV disease, such as CMV retinitis, throughout the study. […]

HIV = test: Clinical evaluation for prevention of CMV disease in HIV patients: HIV; type: in vivo; conditions: CMV prevention study; MacSynergy II
Protocol: Patients are treated once per day with gelatin capsules containing gallium maltolate. The population of patients with CMV (almost universal, seropositive or culture positive patients) and HIV infection are first divided into two subpopulations groups based on CD4+ counts (above 350/mm^3 and below 350/mm^3). The subpopulations are randomly and blindly divided into two groups each randomly subdivided into subgroups for a total of sixteen approximately equal subgroups that receive either 0 (placebo), 250, 500, or 750 mg/day gallium maltolate for about six months. All subgroups receive the identical regimen of non-gallium antiretroviral therapy as described in Example 5 (a HAART regime). […] In each subpopulation, the first group's four subgroups from each subpopulation (above 350/mm^3 and below 350/mm^3) additionally receive the gallium maltolate dose together with 5500 mg foscarnet, IV infusion over 1.5-2 hr., twice per day. In each subpopulation, the second group's four subgroups receive the gallium maltolate dose together with 1000 mg ganciclovir four times per day. Patients are monitored for HIV disease precisely as described in Example 5. Patients are also medically monitored for CMV disease, including testing and examination for medical symptoms of CMV disease, such as CMV retinitis, throughout the study. Any mucosal or skin lesions are studied by in situ hybridization for CMV DNA. […]

Cc1occc(=O)c1[O-].Cc1occc(=O)c1[O-].Cc1occc(=O)c1[O-].[Ga+3] [gallium maltolate, tris(3-hydroxy-2-methyl-4H-pyran-4-onato)gallium]
Efficacy in treating HIV infection (HIV infection): effective for treating HIV infection | Efficacy in treating VZV infection (Varicella-Zoster (VZV); HIV negative patients, 250-750 mg/day oral with acyclovir or ganciclovir): effective for treating VZV infection, including recurrent sores as well as more serious systemic disease | Efficacy of combination with acyclovir or ganciclovir versus single agents (Varicella-Zoster (VZV); VZV): more effective than either agent alone | Synergy with nucleoside analogs (Varicella-Zoster (VZV); VZV, MacSynergy II): synergy of gallium with both nucleoside analogs is also demonstrated | Efficacy in preventing CMV disease in combination (CMV; HIV patients on HAART, with foscarnet or ganciclovir): effective in combination with either foscarnet or ganciclovir | Prevention of CMV disease with only oral agents (CMV; gallium plus ganciclovir versus placebo plus ganciclovir): adequate and effecting better results than placebo plus ganciclovir | Synergy in preventing CMV disease (CMV; with foscarnet or ganciclovir): synergistic with both | Synergy with the HAART regime on HIV infection (HIV): synergistic with the HAART regime in their effects upon the HIV infection
